Assay [1] concerns the target Kappa-type opioid receptor (Cavia porcellus, UniProt P41144). Nature of the assay: Displacement of [3H]U69593 from kappa opioid receptor in guinea pig cerebellum. The format is tissue-based.
The target of a further assay is Mu-type opioid receptor (Cavia porcellus, UniProt P97266). Briefly: Displacement of [3H]DAMGO from mu opioid receptor in guinea pig forebrain.
Assay [2] is described as follows: Displacement of [3H]NTI from delta opioid receptor in guinea pig forebrain. Also on record: species or system Cavia porcellus.
Assay [3] concerns the target Opioid receptor (mu and kappa) (Cavia porcellus) (UniProt P41144+P97266). Briefly: Selectivity ratio of Ki for mu opioid receptor in guinea pig forebrain to Ki for kappa opioid receptor in guinea pig cerebellum. The assay is classed as tissue-based.
The species named for the next assay is Cavia porcellus. Briefly: Selectivity ratio of Ki for delta opioid receptor in guinea pig forebrain to Ki for kappa opioid receptor in guinea pig cerebellum. The format is tissue-based.
The subject of another assay is Mus musculus. Nature of the assay: Antinociceptive activity in sc dosed mouse assessed as effect on acetic acid-induced writhing. The assay is classed as functional. In general terms: Writhing tests count abdominal constrictions after an irritant is injected.

One may read the Ki as the dissociation constant of the complex between target and ligand, obtained from inhibition or displacement. In general, IC50 refers to the concentration that gives 50% inhibition. The term ED50 denotes the dose at which the effect has come halfway, by size or by number of responders.

Sequence of Mu-type opioid receptor (P97266 whole entry): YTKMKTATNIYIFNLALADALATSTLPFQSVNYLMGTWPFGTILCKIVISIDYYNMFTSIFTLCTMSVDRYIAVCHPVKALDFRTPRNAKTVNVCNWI
Sequence of Opioid receptor (mu and kappa) (Cavia porcellus) (P41144 whole entry, looked up): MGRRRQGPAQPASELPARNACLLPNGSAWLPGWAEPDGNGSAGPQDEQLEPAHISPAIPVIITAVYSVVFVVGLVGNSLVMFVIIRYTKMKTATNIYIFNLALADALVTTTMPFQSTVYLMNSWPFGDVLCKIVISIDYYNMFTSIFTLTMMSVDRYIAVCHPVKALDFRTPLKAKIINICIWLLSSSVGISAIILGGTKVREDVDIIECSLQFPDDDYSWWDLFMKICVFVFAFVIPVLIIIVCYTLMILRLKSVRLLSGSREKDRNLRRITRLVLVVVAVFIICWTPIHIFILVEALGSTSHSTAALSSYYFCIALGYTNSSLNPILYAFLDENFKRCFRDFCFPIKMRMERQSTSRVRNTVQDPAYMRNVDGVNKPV
Sequence of Opioid receptor (mu and kappa) (Cavia porcellus) (P97266 whole entry, looked up): as the sequence (P97266 whole entry) above
Sequence of Kappa-type opioid receptor (P41144 whole entry): as the sequence (P41144 whole entry, looked up) above

Consider `Cn1c(/C=C/c2ccccc2)cc2c1[C@@H]1Oc3c(O)ccc4c3[C@@]13CCN(CC1CC1)[C@H](C4)[C@]3(O)C2`, for which the Ki in assay [1] was 3.79 nM; on Mu-type opioid receptor, 1.76 nM. In assay [2], this compound had an IC50 above 1000 nM. For the same compound, in assay [3], the Ratio Ki was 0.5.
Turning to `Cn1c(CCC(=O)CCc2ccccc2)cc2c1[C@@H]1Oc3c(O)ccc4c3[C@@]13CCN(CC1CC1)[C@H](C4)[C@]3(O)C2`, the Ki is 0.342 nM in assay [1], 0.548 nM on Mu-type opioid receptor and 1.59 nM in assay [2]. Besides, the results for the Ratio Ki (in assay [3]; in the assay filed under Cavia porcellus) were 1.6 and 4.6, respectively.
Take `Cn1c(/C=C/C(=O)CCc2ccccc2)cc2c1[C@@H]1Oc3c(O)ccc4c3[C@@]13CCN(CC1CC1)[C@H](C4)[C@]3(O)C2`: the Ki in assay [1] turned out to be 0.935 nM; at Mu-type opioid receptor it was 6.89 nM; in assay [2], 1.73 nM. The Ratio Ki in assay [3] turned out to be 7.4; in the assay filed under Cavia porcellus, 1.9.
The matching figures for `Cn1c(/C=C/C(=O)Cc2ccccc2)cc2c1[C@@H]1Oc3c(O)ccc4c3[C@@]13CCN(CC1CC1)[C@H](C4)[C@]3(O)C2`: 1.13 nM, 6.58 nM, 2.08 nM, 5.8 and 1.8.
The matching figures for `Cc1occc1C(=O)/C=C/c1cc2c(n1C)[C@@H]1Oc3c(O)ccc4c3[C@@]13CCN(CC1CC1)[C@H](C4)[C@]3(O)C2`: 1.15 nM, 6.2 nM, 1.47 nM, 5.4 and 1.3.
In the case of `CCCCCC(=O)/C=C/c1cc2c(n1C)[C@@H]1Oc3c(O)ccc4c3[C@@]13CCN(CC1CC1)[C@H](C4)[C@]3(O)C2`, the Ki in assay [1] was 1.24 nM; on Mu-type opioid receptor, 15 nM; in assay [2], 3.55 nM. Also, the Ratio Ki in assay [3] amounted to 12; in the assay filed under Cavia porcellus, 2.9. Besides, the Activity result in the assay with Mus musculus is “Dose-dependent effect”. The ED50 in the assay on Mus musculus was determined as 5.87 mg/kg.
With `Cn1c(/C=C/C(=O)c2ccccc2)cc2c1[C@@H]1Oc3c(O)ccc4c3[C@@]13CCN(CC1CC1)[C@H](C4)[C@]3(O)C2`, the Ki in assay [1] came out at 0.467 nM; on Mu-type opioid receptor, 3.76 nM; in assay [2], 3.74 nM. Also, the Ratio Ki in assay [3] came out at 8.1; in the assay listed under Cavia porcellus, 8.
Regarding `CCC/C=C/c1cc2c(n1C)[C@@H]1Oc3c(O)ccc4c3[C@@]13CCN(CC1CC1)[C@H](C4)[C@]3(O)C2`, the Ki in assay [1] was found to be 7.38 nM; at Mu-type opioid receptor, 5.85 nM; in assay [2], 6.58 nM. The results for the Ratio Ki (in assay [3]; in the assay listed under Cavia porcellus) were 0.8 and 0.9, respectively.

Source of the values: ChEMBL document CHEMBL1221313, “Synthesis of pyrrolomorphinan derivatives as kappa opioid agonists” (Bioorg Med Chem Lett, 2010).
